Laboratory results: patent publication US11390621B2, “Chiral indole compounds and their use” (ARIAGEN, INC., priority 2019, dated 2022)

Assays:
Format in all cases: in vitro ADME
CYP3A4 = target: T1, CYP3A4 (Homo sapiens, UniProt P08684); assay: CYP profiling: human liver microsomes with CYP3A4 inhibitor ketoconazole; design: % Compound Metabolized at 30 min, CYP3A4 Inhibitor: concentration or dose not given beside the values; conditions: HLMs; for % Inhibition Relative to Negative Control, 3A4: 30 min
T1 construct: from tissue; host or cells: human liver microsomes
Experimental: In order to investigate the contributions of CYP1A2 and CYP3A4 to the metabolism of the compounds of the present disclosure, human liver microsomes were incubated with the test compounds for 30 minutes in the presence of selective chemical inhibitors furafylline (1A2) and ketoconazole (3A4).

human hepatocytes = assay: Hepatocyte intrinsic clearance assay (metabolic stability), human hepatocytes; conditions: Human Hepatocytes; well stirred liver model, fu=1
Text: (§1) The liver is an important organ in the body for drug metabolism. This Example describes hepatocyte intrinsic clearance assays using both human and rat hepatocytes to evaluate the metabolic stability of the indole compounds disclosed herein. The parameters measured include t1/2 (half-life), CLint (intrinsic clearance), and EH (hepatic extraction ratio).
(§2) Testosterone (Lot FE111011-01) was obtained from Cerilliant (Round Rock, Tex.). 7-hydroxycoumarin (Lot 11631ED) was obtained from Sigma Aldrich (St. Louis, Mo.). Cryopreserved human hepatocytes pooled from ten donor males (X008001), cryopreserved male IRC/CD-1 mouse hepatocytes (M005052), INVITROGRO HI Medium (incubation), and INVITROGRO HT Medium (thawing) were obtained from Bioreclamation IVT (Baltimore, Md.). All solvents were obtained from commercial sources and used without further purification.
(§3) Each test compound was prepared as a 1 mM stock solution in DMSO. A 2 μM solution of test compound and positive controls were prepared in INVITROGRO HI Medium (incubation). These solutions were pre-warmed in a sterile incubator set to maintain 37° C., 5% CO2, and 98% humidity. Cryopreserved hepatocytes were prepared at a concentration of 2×10^6 living cells/mL in incubation media and pre-warmed in the incubator. The compound solutions and hepatocyte mixtures were then combined at a ratio of 1:1 (v:v). The final volume of the reaction mixture was 750 μL, containing 1 μM test compound (10 μM for 7-hydroxycoumarin) and […]. The reaction mixture was placed in the incubator on a plate shaker. After 0, 15, 30, 60, 90, and 120 minutes of incubation, 100 μL of reaction mixtures were removed from the incubation plate and mixed with 150 μL of ice-cold acetonitrile in a designated well of a 96-well crash plate. The 96-well crash plate was placed on ice for 15 min, and samples were centrifuged (3,600 RPM, 10 min, 4° C.) to precipitate protein. The supernatants were diluted 1:1 (v:v) with water containing 0.15 μM verapamil and/or 1 μM tolbutamide (internal standards for positive and negative modes, respectively) in a 96-well shallow injection plate. This plate was sealed for LC-MS analysis. All measurements were done in duplicate.
(§4) The residual compound remaining (% R) was determined from LC-MS peak areas by comparison to the zero time point. Metabolic half-life (t1/2) and intrinsic clearance (CLint) values were calculated from the slope of the plot of ln (% R) vs. time and the concentration of hepatocytes present in the incubation. Percent remaining at 60 minutes was calculated by plugging in the 60 minute value into the slope equation generated by the percent remaining time points.
(§5) In vivo hepatic clearance CLH was calculated using the well stirred liver model according to the following equation:
(§6) [formula] where QH is the total liver blood flow, fu is unbound fraction of the drug, and CL′int is defined as follows: CL′int=CLint×(10^6 cells/g of liver weight)×(g liver weight/kg of body weight). In the first approximation, used in this study, fu=1.
(§7) Hepatic extraction ratio EH was calculated using the following equation:
(§8) [formula] Corresponding physiological parameters used in calculations for all species are shown below in Table 3.

[1] = as above; conditions: male, human, cryopreserved pooled hepatocytes, Human Hepatocytes, 1 μM test compound
Text: as §1, §2, §3, §4, §5, §6, §7, §8

rat hepatocytes = assay: Hepatocyte intrinsic clearance assay (metabolic stability), rat hepatocytes; conditions: Rat Hepatocytes; well stirred liver model, fu=1
Text: as §1, §2, §3, §4, §5, §6, §7, §8

[2] = as above; conditions: rat, cryopreserved hepatocytes, Rat Hepatocytes, 1 μM test compound
Text: as §1, §2, §3, §4, §5, §6, §7, §8

T1 sequence (P08684 whole entry): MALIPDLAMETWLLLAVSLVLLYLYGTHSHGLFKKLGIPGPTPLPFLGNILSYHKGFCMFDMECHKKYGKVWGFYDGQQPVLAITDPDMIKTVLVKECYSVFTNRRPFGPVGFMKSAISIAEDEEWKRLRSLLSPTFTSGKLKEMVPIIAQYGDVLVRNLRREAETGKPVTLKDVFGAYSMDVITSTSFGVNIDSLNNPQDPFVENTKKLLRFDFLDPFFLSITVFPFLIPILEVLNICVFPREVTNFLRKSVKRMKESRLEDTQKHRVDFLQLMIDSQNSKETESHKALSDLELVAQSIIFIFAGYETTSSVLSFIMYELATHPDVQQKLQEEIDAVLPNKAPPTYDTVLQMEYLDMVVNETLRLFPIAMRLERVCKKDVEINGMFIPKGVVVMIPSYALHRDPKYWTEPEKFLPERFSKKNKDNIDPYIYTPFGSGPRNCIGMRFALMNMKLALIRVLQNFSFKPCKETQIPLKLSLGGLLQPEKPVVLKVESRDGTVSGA

CC[C@@H](N)c1csc(C(=O)c2c[nH]c3cc(F)ccc23)n1 [ARI-187, (R)-(4-(1-aminopropyl)thiazol-2-yl)(6-fluoro-1H-indol-3-yl)methanone]
% Compound Metabolized at 30 min, CYP3A4 Inhibitor (CYP3A4): 3% | % Inhibition Relative to Negative Control, 3A4 (CYP3A4): 25% | EH (hepatic extraction ratio) (human hepatocytes): 4.4% | half-life at 1 μM [1]: 18.6 h | hepatocyte CLint at 1 μM [1]: 0.621 µL/min/1e6 cells | EH (hepatic extraction ratio) (rat hepatocytes): 24.8% | half-life at 1 μM [2]: 2.3 h | hepatocyte CLint at 1 μM [2]: 4.93 µL/min/1e6 cells

O=C(c1nc([C@@H](O)C(F)(F)F)cs1)c1c[nH]c2cc(F)ccc12 [ARI-211]
% Compound Metabolized at 30 min, CYP3A4 Inhibitor (CYP3A4): 59% | % Inhibition Relative to Negative Control, 3A4 (CYP3A4): None | EH (hepatic extraction ratio) (human hepatocytes): 23.6% | half-life at 1 μM [1]: 1 h | hepatocyte CLint at 1 μM [1]: 11.3 µL/min/1e6 cells | EH (hepatic extraction ratio) (rat hepatocytes): 17.7% | half-life at 1 μM [2]: 3.6 h | hepatocyte CLint at 1 μM [2]: 3.21 µL/min/1e6 cells

O=C(c1nc([C@H](O)C(F)(F)F)cs1)c1c[nH]c2cc(F)ccc12 [ARI-212]
% Compound Metabolized at 30 min, CYP3A4 Inhibitor (CYP3A4): 24% | % Inhibition Relative to Negative Control, 3A4 (CYP3A4): 44% | EH (hepatic extraction ratio) (human hepatocytes): 28.9% | half-life at 1 μM [1]: 0.3 h | hepatocyte CLint at 1 μM [1]: 44.1 µL/min/1e6 cells | EH (hepatic extraction ratio) (rat hepatocytes): 20.5% | half-life at 1 μM [2]: 3 h | hepatocyte CLint at 1 μM [2]: 3.85 µL/min/1e6 cells
